Assays:
[1] = Intensive ECG monitoring and exposure-response analysis of QTcF; format: in vivo, human
Procedure: Safety assessments included monitoring of AEs, laboratory safety tests (hematology, serum chemistry, and urinalysis), 12-lead ECG (discrete recordings and 24-h Holter recording), and vital signs (blood pressure, pulse rate, and body temperature). In the SAD study, safety assessments were performed predose at screening, at day 1, postdose periodically on days 1, 2, and 7 (follow-up), and at early withdrawal, if relevant. […] In the MAD study, safety assessments were done predose at screening, at day 2, postdose periodically on days 1, 2, 4, 7, and 8, on days 13 to 15 (follow-up), and at early withdrawal, if relevant. […] On all other days, a single predose sample was collected for pharmacokinetic evaluation prior to the morning infusion. Blood was collected into lithium-heparin tubes and stored at a nominal –80°C temperature until analysis.

[2] = MAD study: safety and tolerability (TEAEs, laboratory safety tests); format: in vivo, human; conditions: for TEAE: Catheter site pain / TEAE: Diarrhea / TEAE: Ecchymosis / TEAE: Headache / TEAE: Infusion site extravasation / TEAE: Injection site erythema / TEAE: Injection site extravasation / TEAE: Injection site hemorrhage / TEAE: Injection site injury / TEAE: Injection site pain / TEAE: Medical device site erythema (erythema at the ECG patch sites) / TEAE: Nausea / TEAE: Phlebitis / TEAE: Scratch / TEAE: Vessel puncture site hemorrhage / Withdrawn due to AE / ≥1 TEAE / ≥1 drug-related TEAE / ≥1 serious TEAE: n = 6
Procedure: The MAD study consisted of three parts (Fig. 1). […] Participants were enrolled in two sequential cohorts (cohort 1, followed by cohort 2). […] Participants were also enrolled in two sequential cohorts (cohort 3, followed by cohort 4). […] A washout period of approximately 24 h between treatments was provided. A sentinel dosing strategy was employed in both studies. […] In all cohorts, escalation to the next dose occurred after a safety review of the previous cohort. In the MAD study, sentinel dosing was performed in part 3, wherein participants were evaluated for safety up to 24 h after administration of the first drug combination (or placebo) on day 3, prior to enrolling additional participants. Safety assessments included monitoring of AEs, laboratory safety tests (hematology, serum chemistry, and urinalysis), 12-lead ECG (discrete recordings and 24-h Holter recording), and vital signs (blood pressure, pulse rate, and body temperature). In the SAD study, safety assessments were performed predose at screening, at day 1, postdose periodically on days 1, 2, and 7 (follow-up), and at early withdrawal, if relevant. […] In the MAD study, safety assessments were done predose at screening, at day 2, postdose periodically on days 1, 2, 4, 7, and 8, on days 13 to 15 (follow-up), and at early withdrawal, if relevant. […] On all other days, a single predose sample was collected for pharmacokinetic evaluation prior to the morning infusion. Blood was collected into lithium-heparin tubes and stored at a nominal –80°C temperature until analysis.

[3] = MAD parts 1 and 2, 8,000 mg (single dose)

SMILES: NCCONC(=O)[C@@H]1CC[C@@H]2CN1C(=O)N2OS(=O)(=O)O [Nacubactam]
- treatment estimate, linear model of change in QTcF vs plasma concentration ([1]; 90% CI, 3.8879 to 1.9931, P = 0.59): 0.9474
- slope estimate, linear model of change in QTcF vs plasma concentration ([1]; P = 0.73): 0.00422
- upper limit of the two-sided 90% CI of predicted change from baseline in QTcF ([1]; at the Cmax of 325 μg/ml, each of the three models): < 10 ms
- predicted mean change from baseline in QTcF ([1]; at the Cmax of 325 μg/ml, each of the three models (linear, quadratic, log-linear)): < 3 ms
- effect on QTc interval duration, other ECG intervals, or ECG morphology ([1]; nacubactam alone, intensive ECG monitoring): did not reveal any significant effects
- participants reporting AEs ([2]; MAD monotherapy phase (parts 1 and 2), 13 of the 24 participants): 54.2%
- total number of AEs ([2]; MAD monotherapy phase (parts 1 and 2), 24 participants): 48
- TEAE: Catheter site pain ([2]; MAD parts 1 and 2, 1,000 mg): 1/1
- TEAE: Diarrhea ([2]; MAD parts 1 and 2, 1,000 mg): 0 n/E
- TEAE: Ecchymosis ([2]; MAD parts 1 and 2, 1,000 mg): 1/1
- TEAE: Headache ([2]; MAD parts 1 and 2, 1,000 mg): 1/1
- TEAE: Infusion site extravasation ([2]; MAD parts 1 and 2, 1,000 mg): 1/1
- TEAE: Injection site erythema ([2]; MAD parts 1 and 2, 1,000 mg): 1/1
- TEAE: Injection site extravasation ([2]; MAD parts 1 and 2, 1,000 mg): 0 n/E
- TEAE: Injection site hemorrhage ([2]; MAD parts 1 and 2, 1,000 mg): 0 n/E
- TEAE: Injection site injury ([2]; MAD parts 1 and 2, 1,000 mg): 0 n/E
- TEAE: Injection site pain ([2]; MAD parts 1 and 2, 1,000 mg): 0 n/E
- TEAE: Medical device site erythema (erythema at the ECG patch sites) ([2]; MAD parts 1 and 2, 1,000 mg): 0 n/E
- TEAE: Nausea ([2]; MAD parts 1 and 2, 1,000 mg): 0 n/E
- TEAE: Phlebitis ([2]; MAD parts 1 and 2, 1,000 mg): 0 n/E
- TEAE: Scratch ([2]; MAD parts 1 and 2, 1,000 mg): 0 n/E
- TEAE: Vessel puncture site hemorrhage ([2]; MAD parts 1 and 2, 1,000 mg): 0 n/E
- Withdrawn due to AE ([2]; MAD parts 1 and 2, 1,000 mg): 0 n
- ≥1 TEAE ([2]; MAD parts 1 and 2, 1,000 mg): 4/8
- ≥1 drug-related TEAE ([2]; MAD parts 1 and 2, 1,000 mg): 2/2
- ≥1 serious TEAE ([2]; MAD parts 1 and 2, 1,000 mg): 0 n
- TEAE: Catheter site pain ([2]; MAD parts 1 and 2, 2,000 mg): 0 n/E
- TEAE: Diarrhea ([2]; MAD parts 1 and 2, 2,000 mg): 0 n/E
- TEAE: Ecchymosis ([2]; MAD parts 1 and 2, 2,000 mg): 0 n/E
- TEAE: Headache ([2]; MAD parts 1 and 2, 2,000 mg): 0 n/E
- TEAE: Infusion site extravasation ([2]; MAD parts 1 and 2, 2,000 mg): 0 n/E
- TEAE: Injection site erythema ([2]; MAD parts 1 and 2, 2,000 mg): 0 n/E
- TEAE: Injection site extravasation ([2]; MAD parts 1 and 2, 2,000 mg): 1/1
- TEAE: Injection site hemorrhage ([2]; MAD parts 1 and 2, 2,000 mg): 0 n/E
- TEAE: Injection site injury ([2]; MAD parts 1 and 2, 2,000 mg): 0 n/E
- TEAE: Injection site pain ([2]; MAD parts 1 and 2, 2,000 mg): 0 n/E
- TEAE: Medical device site erythema (erythema at the ECG patch sites) ([2]; MAD parts 1 and 2, 2,000 mg): 0 n/E
- TEAE: Nausea ([2]; MAD parts 1 and 2, 2,000 mg): 0 n/E
- TEAE: Phlebitis ([2]; MAD parts 1 and 2, 2,000 mg): 0 n/E
- TEAE: Scratch ([2]; MAD parts 1 and 2, 2,000 mg): 0 n/E
- TEAE: Vessel puncture site hemorrhage ([2]; MAD parts 1 and 2, 2,000 mg): 0 n/E
- Withdrawn due to AE ([2]; MAD parts 1 and 2, 2,000 mg): 0 n
- ≥1 TEAE ([2]; MAD parts 1 and 2, 2,000 mg): 2/3
- ≥1 drug-related TEAE ([2]; MAD parts 1 and 2, 2,000 mg): 2/2
- ≥1 serious TEAE ([2]; MAD parts 1 and 2, 2,000 mg): 0 n
- TEAE: Catheter site pain ([2]; MAD parts 1 and 2, 4,000 mg): 0 n/E
- TEAE: Diarrhea ([2]; MAD parts 1 and 2, 4,000 mg): 0 n/E
- TEAE: Ecchymosis ([2]; MAD parts 1 and 2, 4,000 mg): 0 n/E
- TEAE: Headache ([2]; MAD parts 1 and 2, 4,000 mg): 1/1
- TEAE: Infusion site extravasation ([2]; MAD parts 1 and 2, 4,000 mg): 0 n/E
- TEAE: Injection site erythema ([2]; MAD parts 1 and 2, 4,000 mg): 1/1
- TEAE: Injection site extravasation ([2]; MAD parts 1 and 2, 4,000 mg): 1/1
- TEAE: Injection site hemorrhage ([2]; MAD parts 1 and 2, 4,000 mg): 2/2
- TEAE: Injection site injury ([2]; MAD parts 1 and 2, 4,000 mg): 2/2
- TEAE: Injection site pain ([2]; MAD parts 1 and 2, 4,000 mg): 3/3
- TEAE: Medical device site erythema (erythema at the ECG patch sites) ([2]; MAD parts 1 and 2, 4,000 mg): 4/4
- TEAE: Nausea ([2]; MAD parts 1 and 2, 4,000 mg): 0 n/E
- TEAE: Phlebitis ([2]; MAD parts 1 and 2, 4,000 mg): 0 n/E
- TEAE: Scratch ([2]; MAD parts 1 and 2, 4,000 mg): 1/1
- TEAE: Vessel puncture site hemorrhage ([2]; MAD parts 1 and 2, 4,000 mg): 2/2
- Withdrawn due to AE ([2]; MAD parts 1 and 2, 4,000 mg): 0 n
- ≥1 TEAE ([2]; MAD parts 1 and 2, 4,000 mg): 6/36
- ≥1 drug-related TEAE ([2]; MAD parts 1 and 2, 4,000 mg): 3/3
- ≥1 serious TEAE ([2]; MAD parts 1 and 2, 4,000 mg): 0 n
- TEAE: Catheter site pain [2, 3]: 0 n/E
- TEAE: Diarrhea [2, 3]: 0 n/E
- TEAE: Ecchymosis [2, 3]: 0 n/E
- TEAE: Headache [2, 3]: 0 n/E
- TEAE: Infusion site extravasation [2, 3]: 0 n/E
- TEAE: Injection site erythema [2, 3]: 0 n/E
- TEAE: Injection site extravasation [2, 3]: 0 n/E
- TEAE: Injection site hemorrhage [2, 3]: 0 n/E
- TEAE: Injection site injury [2, 3]: 0 n/E
- TEAE: Injection site pain [2, 3]: 0 n/E
- TEAE: Medical device site erythema (erythema at the ECG patch sites) [2, 3]: 0 n/E
- TEAE: Nausea [2, 3]: 0 n/E
- TEAE: Phlebitis [2, 3]: 0 n/E
- TEAE: Scratch [2, 3]: 0 n/E
- TEAE: Vessel puncture site hemorrhage [2, 3]: 0 n/E
- Withdrawn due to AE [2, 3]: 0 n
- ≥1 TEAE [2, 3]: 1/1
- ≥1 drug-related TEAE [2, 3]: 0 n/E
- ≥1 serious TEAE [2, 3]: 0 n
- tolerability ([2]; all single doses up to 8,000 mg and multiple doses up to 4,000 mg q8h): well tolerated
- serious AEs ([2]; alone (50 to 8,000 mg) or coadministered with meropenem (2,000 mg each), both studies): no serious AEs were reported
- effect on kidney function ([2]; nacubactam alone, validated measures of renal function and exploratory urine kidney biomarkers): no significant effects on kidney function

From article PMC7179653 (Antimicrobial Agents and Chemotherapy, 2020)
